From patent US8697692B2, “Pyrrolo [3,2-c] pyridine-4-one 2-indolinone protein kinase inhibitors” (Shanghai Hengrui Pharmaceutical Co., Ltd., priority 2006, dated 2014) come the findings set out here.

This assay deals with A431 cell. The assay can be described thus: Cell Proliferation Inhibition EGFR Assay (SRB method). The class given is cell-based, homo sapient. The following applies: Homo sapiens, A-431; A431 cells, 72 hours exposure, Sulforhodamine B; read-out: IC50 (A431). Summed up: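 A431 cells grown to ~85% confluence, then exposed 72 hours at 37° C to 6 to 7 serial concentrations of compound in DMEM/F12 + 10% FBS, final DMSO ≤0.5%. Growth measured by TCA fixation and sulforhodamine B staining; IC50 calculated from inhibition rates.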
`CCN(CC)CCN1CCc2[nH]c(/C=C3\C(=O)Nc4cccc(Br)c43)c(C)c2C1=O` [Example 30, 2-(4-Bromo-2-oxo-1,2-dihydro-indol-3-ylidenemethyl)-5-(2-diethylamino-ethyl)-3-methyl-1,5,6,7-tetrahydro-pyrrolo[3,2-c]pyridin-4-one]: the IC50 – broadly, the concentration that inhibits the measured activity by half – came out at 330 nM.

Consider `Cc1c(/C=C2\C(=O)Nc3cccc(CCO)c32)[nH]c2c1C(=O)N(CCN1CCOCC1)CC2` [Example 42, 2-[4-(2-Hydroxy-ethyl)-2-oxo-1,2-dihydro-indol-3-ylidenemethyl]-3-methyl-5-(2-morpholin-4-yl-ethyl)-1,5,6,7-tetrahydro-pyrrolo[3,2-c]pyridin-4-one], for which the 50% inhibitory concentration (IC50) amounted to 16500 nM.

For `Cc1c(/C=C2\C(=O)Nc3cccc(C4CCNCC4)c32)[nH]c2c1C(=O)N(CCN1CCOCC1)CC2` [Example 52, 3-Methyl-5-(2-morpholin-4-yl-ethyl)-2-(2-oxo-4-piperidin-4-yl-1,2-dihydro-indol-3-ylidenemethyl)-1,5,6,7-tetrahydro-pyrrolo[3,2-c]pyridin-4-one], the IC50 was found to be 1900 nM.

As for `CCN(CC)CCN1CCc2[nH]c(/C=C3\C(=O)Nc4cccc(-c5cccc(Cl)c5F)c43)c(C)c2C1=O` [Example 36, 2-[4-(3-Chloro-2-fluoro-phenyl)-2-oxo-1,2-dihydro-indol-3-ylidenemethyl]-5-(2-diethylamino-ethyl)-3-methyl-1,5,6,7-tetrahydro-pyrrolo[3,2-c]pyridin-4-one], the 50% inhibitory concentration (IC50) stood at 7320 nM.

As for `CCN(CC)CCN1CCc2[nH]c(/C=C3\C(=O)Nc4cccc(CCO)c43)c(C)c2C1=O` [Example 37, 5-(2-Diethylamino-ethyl)-2-[4-(2-hydroxy-ethyl)-2-oxo-1,2-dihydro-indol-3-ylidenemethyl]-3-methyl-1,5,6,7-tetrahydro-pyrrolo[3,2-c]pyridin-4-one], the concentration for half-maximal inhibition (IC50) stood at 3850 nM.

On to `Cc1c(/C=C2\C(=O)Nc3cccc(-c4cccc(F)c4F)c32)[nH]c2c1C(=O)N(CCN1CCCC1)CC2` [Example 59, 2-[4-(2,3-Difluoro-phenyl)-2-oxo-1,2-dihydro-indol-3-ylidenemethyl]-3-methyl-5-(2-pyrrolidin-1-yl-ethyl)-1,5,6,7-tetrahydro-pyrrolo[3,2-c]pyridin-4-one], for which the half-inhibitory concentration (IC50) was 2190 nM.

For the compound `CCN(CC)CCN1CCc2[nH]c(/C=C3\C(=O)Nc4ncnc(Nc5ccc(F)c(Cl)c5)c43)c(C)c2C1=O` [Example 12, 4-(3-Chlor O-4-fluoro-phenylamino)-5-[5-(2-diethylamino-ethyl)-3-methyl-4-oxo-4,5,6,7-tetrahydro-1H-pyrrolo[3,2-c]pyridine-2-ylmethylene]-5,7-dihydro-pyrrolo[2,3-d]pyrimidin-6-one], the IC50 is 67 nM.

As for `Cc1c(/C=C2\C(=O)Nc3ncc(Br)cc32)[nH]c2c1C(=O)N(CCN1CCOCC1)CC2` [Example 50, 2-(5-Bromo-2-oxo-1,2-dihydro-pyrrolo[2,3-b]pyridin-3-ylidenemethyl)-3-methyl-5-(2-morpholin-4-yl-ethyl)-1,5,6,7-tetrahydro-pyrrolo[3,2-c]pyridin-4-one], the half-inhibitory concentration (IC50) amounted to 15900 nM.

Take `CCN(CC)CCN1CCc2[nH]c(/C=C3\C(=O)Nc4cccc(-c5cccc(F)c5F)c43)c(C)c2C1=O` [Example 39, 5-(2-diethylamino-ethyl)-2-[4-(2,3-difluoro-phenyl)-2-oxo-1,2-dihydro-indol-3-ylidenemethyl]-3-methyl-1,5,6,7-tetrahydro-pyrrolo[3,2-c]pyridin-4-one]: the half-maximal inhibitory concentration (IC50) was found to be 380 nM.

Take `CCN(CC)CCN1CCc2[nH]c(/C=C3\C(=O)Nc4cccc(-c5ccc(Cl)cc5F)c43)c(C)c2C1=O` [Example 34, 2-[4-(4-Chloro-2-fluoro-phenyl)-2-oxo-1,2-dihydro-indol-3-ylidenemethyl]-5-(2-diethylamino-ethyl)-3-methyl-1,5,6,7-tetrahydro-pyrrolo[3,2-c]pyridin-4-one]: the IC50 was determined as 3230 nM.

Regarding `Cc1c(/C=C2\C(=O)Nc3ncnc(Nc4ccc(F)c(Cl)c4)c32)[nH]c2c1C(=O)N(CCN1CCOCC1)CC2` [Example 24, 4-(3-Chloro-4-fluoro-phenylamino)-5-[3-methyl-5-(2-morpholin-4-yl-ethyl)-4-oxo-4,5,6,7-tetrahydro-1H-pyrrolo[3,2-c]pyridine-2-ylmethylenene]-5,7-dihydro-pyrrolo[2,3-d]pyrimidin-6-one], the half-inhibitory concentration (IC50) was 330 nM.

`CCN(CC)CCN1CCc2[nH]c(/C=C3\C(=O)Nc4cccc(C5CCNCC5)c43)c(C)c2C1=O` [Example 31, 5-(2-Diethylamino-ethyl)-3-methyl-2-(2-oxo-4-piperidin-4-yl-1,2-dihydro-indol-3-ylidenemethyl)-1,5,6,7-tetrahydro-pyrrolo[3,2-c]pyridin-4-one]: the IC50 amounted to 350 nM.

Take `Cc1c(/C=C2\C(=O)Nc3ccc(Cl)cc32)[nH]c2c1C(=O)N(CCN1CCOCC1)CC2` [Example 16, 2-(5-Chloro-2-oxo-1,2-dihydro-indol-3-ylidenemethyl)-3-methyl-5-(2-morpholin-4-yl-ethyl)-1,5,6,7-tetrahydro-pyrrolo[3,2-c]pyridin-4-one]: the half-maximal inhibitory concentration (IC50) was 10200 nM.

On to `CCN(CC)CCN1CCc2[nH]c(/C=C3\C(=O)Nc4ccc(OC)cc43)c(C)c2C1=O` [Example 35, 5-(2-Diethylamino-ethyl)-2-(5-methoxy-2-oxo-1,2-dihydro-indol-3-ylidenemethyl)-3-methyl-1,5,6,7-tetrahydro-pyrrolo[3,2-c]pyridin-4-one], for which the concentration for half-maximal inhibition (IC50) worked out at 4350 nM.
